“Also recorded” adds a separate entry of the source.
Assay: Hygroscopicity test (water content change with time under 30% humidity)
Format: physicochemical
Conditions: for hygroscopicity (result in words): humidity condition of 30% for 10 hours; for water content after being left under humidity: humidity condition of 30%, after about 10 hours; for initial water content: raw material before exposure to humidity condition of 30%
Procedure: In the figure, X axis indicates the elapse time and Y axis the water content.
In case of the polymorphic crystal, however, the initial water content was 2.9% but increased to 4.2% after 10 hours due to absorption moisture from air.

| Compound | hygroscopicity (result in words) | water content after being left under humidity [%] | initial water content [%] |
| --- | --- | --- | --- |
| C[N+](C)(C)CCOP(=O)(O)OC[C@H](O)CO [Type I crystal, L-alpha-glyceryl phosphoryl choline] | very low hygroscopicity | 0.2 | 0.1 |
| C[N+](C)(C)CCOP(=O)(O)OC[C@H](O)CO [Type II crystal, L-alpha-glyceryl phosphoryl choline] | very low hygroscopicity | 6.5 | 6.5 |
| C[N+](C)(C)CCOP(=O)(O)OC[C@H](O)CO [polymorphic crystal, L-alpha-glyceryl phosphoryl choline, reference compound] | relatively very hygroscopic; also recorded: high hygroscopicity | 4.2 | 2.9 |
